“Also recorded” adds a separate entry of the source. *1 amine or outer side, *2 acyl side, *3 side chain or, on linkers, in order; H or OH if unused. Where a SMILES comes first, the peptide text is derived from it. Bridges are numbered along the chain shown (N, C = ends). Roman numbers before positions name the chains, in order. [ ]: non-standard residue; d: D form. Actinocin(9to1) = Cc1c2oc3c(C)ccc(C(=O)[*:1])c3nc-2c(C(=O)[*:2])c(N)c1=O; NMeV = CN[C@H](C(=O)O)C(C)C; Sar = CNCC(=O)O
Legend:
Format in all cases: cell-based, human
Caki-1 cells [1] = test: LDH cytotoxicity assay; conditions: for cytotoxicity according to LDH assay (conclusion): Caki-1; for cytotoxicity according to LDH assay (conclusion) / cytotoxicity (summary statement): concentration not given; for cytotoxicity (LDH assay): Caki-1, 10 μM, 1 day, second batch; for cell death / toxicity (LDH): Caki-1, 10 and 30 μM
Experimental: (§1) Cell culture 2: Caki-1 was purchased from CLS Cell Lines Service (Germany). The cells were maintained in McCoy's 5A (modified) medium (16600082, Thermo Fisher Scientific, USA) and supplemented with 10% fetal bovine serum (FBS, F7524, Sigma-Aldrich), 1% Penicillin/Streptomycin (P4333, Sigma-Aldrich).
Lactate dehydrogenase (LDH) assay was performed with LDH Assay Kit (ab65393). […] 20 μl of media was analysed with LDH Assay Kit as per manufacturer's instruction.

Caki-1 cells [2] = test: Cell morphology (DIC images) of treated Caki-1 cells; conditions: Caki-1, 10 μM, 1 day; for effect on the cell morphology: DIC images (FIG. 52)
Description: The effect of treatment of Caki-1 cells with the target compounds was further evaluated by monitoring the cell morphology of treated cells, see FIG. 52.

Caki-1 cells [3] = test: MTT cell viability assay; conditions: for reduction in cell viability (MTT) / cell viability over the treatment period (MTT): Caki-1, 10 μM; for reduction in cell viability (MTT): 1 day, second batch; for cell viability over the treatment period (MTT): 27 h, 48 h and 72 h (FIG. 55); for reduction in cell viability according to MTT assay (conclusion): Caki-1; for reduction in cell viability according to MTT assay (conclusion) / cell viability of treated cells (summary statement): concentration not given
Experimental: as §1
The cytotoxic effects of the TG-101209 and its alternatives on the Caki-1 cells were tested by MTT (Thiazolyl Blue Tetrazolium Bromide) method. 1.5×10^4 cells were seeded per well in a 96-well plate in 100 μL growth media. […] After the incubation period, 5 mg/ml MTT (M2128, Sigma-Aldrich) solution in PBS (10 μL) was added to each well. After 1 hour, the MTT solution and all media were removed from the wells. 100 μl of DMSO was added and mixed to dissolve the formazan crystals. Cell viability was analysed by measuring the absorbance of the dissolved formazan at a wavelength of 570 nm with a microplate reader (Hidex Sense Beta Plus).

BUB1B = test: Western blot of BUB1B in Caki-1 cells treated with TG-101209 derivatives; conditions: for expression levels of BUB1B (Western blot): Caki-1 cells, 5 μM of target drug, 1 day (FIG. 41, 56)
Experimental: as §1
The target drugs developed as alternatives to TG-101209, were dissolved in 0.1% DMSO (41639, Sigma-Aldrich). Caki-1 cells from cell culture 2 were seeded in a 6-well plate at 3×10^5 cells per well. […]
The cells were washed with PBS solution and then lysed with CelLytic M (C2978, Sigma-Aldrich) lysis buffer containing protease inhibitors (11836170001, Roche). The cell lysates were centrifuged at 12 000 rpm for 10 min and supernatants were collected. Protein Assay Dye Reagent (5000006, Bio-Rad) was used for the determination of protein concentration. The absorbance of the proteins was measured spectrophotometrically at 595 nm by a microplate reader (Hidex Sense Beta Plus). Protein electrophoresis was performed using Mini-PROTEAN® TGX™ Precast Gels (4561086, Bio-Rad) and then the separated proteins were transferred to a Trans-Blot Turbo Mini 0.2 μm PVDF Transfer Packs membrane (1704158, Bio-Rad) by using Trans-Blot® Turbo™ Transfer System (Bio-Rad). The membrane was blocked with 5% skim milk for 30 min at 4° C. with gentle rocking. After blocking, the membrane was treated with primary antibodies: Anti-BUB1B (HPA008419, Human Protein Atlas, Sweden) and Anti-Beta actin (ab8227, Abcam) as a loading control overnight at 4° C. on a rocking platform. After the treatment of primary antibodies, the membrane was washed three times with TBS-T buffer (A09-7500-100, Medicago). Then, Goat anti-Rabbit IgG-HRP (ab205718, Abcam) was treated as the secondary antibody for 30 min at 4° C. with gentle rocking.

RRM2 = test: Western blot of RRM2 protein level in drug-treated Caki-1; conditions: Caki-1, 24 h; NVP-TAE684 3 nM, MK-0752 5 nM, withaferin-a 4 μM, actinomycin-d 0.3 nM; vs DMSO
Experimental: Cell culture 1: Human clear cell renal cell carcinoma (ccRCC) cell line Caki-1 was obtained from the Karolinska Institute of Environmental Medicine, Stockholm, Sweden, derived from a ccRCC patient. The cells were cultured in RPMI 1640 medium with 10% fetal bovine serum (FBS) and 1% penicillin/streptomycin. The cells were cultivated at 37° C. in a humidified incubator with 5% CO2.
TG-101209, NVP-TAE684, MK-0752, actinomycin-d, and panobinostat were purchased from Selleckchem (S2692, S1108, S2660, S8964, S1030, Selleckchem, Houston, TX, USA), and withaferin-a was purchased from Sigma (W4394, Sigma-Aldrich, Saint Louis, MO, USA). These drugs were dissolved in DMSO. The cells (from cell culture 1) were seeded in a 96-well plate at 20×10^3 cells per well. After seeding for 24 h, the cells were treated for 24 h with the target drugs: TG-101209 (6 nM), NVP-TAE684 (3 nM), MK-0752 (5 nM), withaferin-a (4 μM), actinomycin-d (0.3 nM), and panobinostat (5 nM). The cells in the negative control group were only treated by DMSO for one day.
The cells were washed with phosphate-buffered saline (PBS) and lysed with CelLytic M (C2978, Sigma-Aldrich, Saint Louis, MO, USA) lysis buffer containing protease inhibitors. The lysates were centrifuged at 12 000 rpm for 5 min, and the supernatant was collected. The proteins were separated by Mini-PROTEAN® TGX™ Precast Gels (BioRad, Berkeley, CA, USA) and transferred to a Trans-Blot Turbo Mini 0.2 μm PVDF Transfer Packs membrane (BioRad, Berkeley, CA, USA) by using Trans-Blot® Turbo™ Transfer System (Bio-Rad, Berkeley, CA, USA). The antibodies for BUB1B (HPA008419), RRM2 (HPA056994), CEP55 (HPA023430), ASF1B (HPA069385), CCNB2 (HPA008873), and GAPDH (sc47724, Santa Cruz Biotechnology, Inc.) were used for primary immunoblotting. All the antibodies were diluted at 1:10000 concentration. The membranes were incubated in primary antibody solution overnight at 4° C. with gentle rocking. […] The protein bands were detected with ImageQuanat™ LAS 500 (29-0050-63, GE) automatic exposure procedure or 6 min exposure.

Caki-1 = test: Cell Counting Kit-8 (CCK-8) cell viability assay; conditions: Caki-1, 24 h; TG-101209 6 nM, NVP-TAE684 3 nM, MK-0752 5 nM, withaferin-a 4 μM, panobinostat 5 nM; vs DMSO
Experimental: Cell culture 1: Human clear cell renal cell carcinoma (ccRCC) cell line Caki-1 was obtained from the Karolinska Institute of Environmental Medicine, Stockholm, Sweden, derived from a ccRCC patient. The cells were cultured in RPMI 1640 medium with 10% fetal bovine serum (FBS) and 1% penicillin/streptomycin. The cells were cultivated at 37° C. in a humidified incubator with 5% CO2. TG-101209, NVP-TAE684, MK-0752, actinomycin-d, and panobinostat were purchased from Selleckchem ([…], […], […], […], […], Selleckchem, Houston, TX, USA), and withaferin-a was purchased from Sigma (W4394, Sigma-Aldrich, Saint Louis, MO, USA). These drugs were dissolved in DMSO. The cells (from cell culture 1) were seeded in a 96-well plate at 20×10^3 cells per well. After seeding for 24 h, the cells were treated for 24 h with the target drugs: TG-101209 (6 nM), NVP-TAE684 (3 nM), MK-0752 (5 nM), withaferin-a (4 μM), actinomycin-d (0.3 nM), and panobinostat (5 nM). The cells in the negative control group were only treated by DMSO for one day. Cell proliferation was detected by Cell Counting Kit-8 (CCK-8) assay. The 10 μl of CCK-8 reagent (1:10) was added to each well of 96-well plate with siRNA transfected cells or drug-treated cells by manufacturer's instruction. The 96-well plate was incubated at 37° C. for 2 hours and then measured absorbance at 450 nm using a microplate reader (Hidex Sense Beta Plus).

| Compound | cytotoxic effect and dose dependence (Caki-1 cells [1]; Caki-1, 10 nM-30 μM) | cytotoxicity according to LDH assay (conclusion) (Caki-1 cells [1]) | mechanism according to morphology evaluation (Caki-1 cells [2]) | effect on the cell morphology (Caki-1 cells [2]) | change of IC50 values after 2 days compared to 1 day treatment (Caki-1 cells [3]; Caki-1 (FIG. 53-54)) | reduction in cell viability (MTT) (Caki-1 cells [3]) | cell viability over the treatment period (MTT) (Caki-1 cells [3]) | IC50 values compared with TG-101209 (Caki-1 cells [3]; Caki-1, 1 and 2 days (FIG. 53-54)) | IC50 value after treatment for 1 day (Caki-1 cells [3]; Caki-1, doses 10 nM to 30 μM (FIG. 53)) | reduction in cell viability according to MTT assay (conclusion) (Caki-1 cells [3]) | cell viability of treated cells (summary statement) (Caki-1 cells [3]) | expression levels of BUB1B (Western blot) (BUB1B) | expression levels of BUB1B (summary statement) (BUB1B; concentration not given) | cytotoxicity (LDH assay) (Caki-1 cells [1]) | cell death / toxicity (LDH) (Caki-1 cells [1]) | cytotoxicity (summary statement) (Caki-1 cells [1]) | protein level of RRM2 (Western blot) (RRM2) | cell viability (CCK-8) (Caki-1) |
| --- | --- | --- | --- | --- | --- | --- | --- | --- | --- | --- | --- | --- | --- | --- | --- | --- | --- | --- |
| COc1cc(Nc2ncc(C)c(Nc3cccc(S(=O)(=O)NC(C)(C)C)c3)n2)cc(OC)c1OC [Compound M76, N-(tert-butyl)-3-((5-methyl-2-((3,4,5-trimethoxyphenyl)amino)pyrimidin-4-yl)amino)benzenesulfonamide] | dose dependent toxicity | greatest cytotoxicity | cell growth inhibition mechanism | distinct effect on the cell morphology | largest decrease | the greatest | larger decrease in cell viability than TG-101209 | better IC50 values than TG-101209 | lowest IC50 value | greatest reduction in cell viability | especially low cell viability; also recorded: significantly reduced cell viability | ability to lower the expression levels of BUB1B | reduction of the expression levels of BUB1B | – | – | – | – | – |
| Cc1cnc(Nc2ccc(C(=O)Nc3ccc(N4CCN(C)CC4)cc3)cc2)nc1Nc1cccc(S(=O)(=O)NC(C)(C)C)c1 [Compound M101N, 4-((4-((3-(N-(tert-butyl)sulfamoyl)phenyl)amino)-5-methylpyrimidin-2-yl)amino)-N-(4-(4-methylpiperazin-1-yl)phenyl)benzamide] | – | greatest cytotoxicity | work as cytotoxic agents | distinct effect on the cell morphology | – | the greatest | larger decrease in cell viability than TG-101209 | – | – | greatest reduction in cell viability | particularly low cell viability; also recorded: significantly reduced cell viability | did not affect the expression levels of BUB1B | – | greatest cytotoxicity | strong toxicity | high cytotoxicity | – | – |
| Cc1cnc(Nc2ccc(C(=O)Nc3ccc(OCCN4CCCC4)cc3)cc2)nc1Nc1cccc(S(=O)(=O)NC(C)(C)C)c1 [Compound M101P, 4-((4-((3-(N-(tert-butyl)sulfamoyl)phenyl)amino)-5-methylpyrimidin-2-yl)amino)-N-(4-(2-(pyrrolidin-1-yl)ethoxy)phenyl)benzamide] | – | greatest cytotoxicity | work as cytotoxic agents | distinct effect on the cell morphology | – | the greatest | larger decrease in cell viability than TG-101209 | – | – | greatest reduction in cell viability | particularly low cell viability; also recorded: significantly reduced cell viability | ability to lower the expression levels of BUB1B | – | greatest cytotoxicity | strong toxicity | high cytotoxicity | – | – |
| COc1cc(N2CCC(N3CCN(C)CC3)CC2)ccc1Nc1ncc(Cl)c(Nc2ccccc2S(=O)(=O)C(C)C)n1 [NVP-TAE684] | – | – | – | – | – | – | – | – | – | – | – | – | – | – | – | – | significantly suppressed | significantly reduced |
| Cc1c2oc3c(C)ccc(C(=O)N[C@@H]4C(=O)N[C@H](C(C)C)C(=O)N5CCC[C@H]5C(=O)N(C)CC(=O)N(C)[C@@H](C(C)C)C(=O)O[C@@H]4C)c3nc-2c(C(=O)N[C@@H]2C(=O)N[C@H](C(C)C)C(=O)N3CCC[C@H]3C(=O)N(C)CC(=O)N(C)[C@@H](C(C)C)C(=O)O[C@@H]2C)c(N)c1=O [actinomycin-d] (I: T[dV]P[Sar][NMeV] / II: T[dV]P[Sar][NMeV]; ester I:1-I:C, II:1-II:C; linker I:N-II:N via Actinocin(9to1)) | – | – | – | – | – | – | – | – | – | – | – | – | – | – | – | – | does not work for inhibiting RRM2 | – |
| CC1=C(CO)C(=O)O[C@@H]([C@@H](C)[C@H]2CC[C@H]3[C@@H]4C[C@H]5O[C@]56[C@@H](O)C=CC(=O)[C@]6(C)[C@H]4CC[C@]23C)C1 [withaferin-a] | – | – | – | – | – | – | – | – | – | – | – | – | – | – | – | – | significantly suppressed | significantly reduced |
